Experiments:
immune system organs = assay: Organ weight and total cell recovery; format: in vivo, C57B16 mice; parameters: Spleen Cell Number / Thymus Cell Number / LN Cell Number / BM Cell Number: scale not given here; Spleen Weight / Thymus Weight: unit not given here
Protocol: (§1) At 24 hours after the last exposure, the animals were sacrificed and the effects of exposure on the immune system examined. Immune organs (spleen, thymus, blood, lymph nodes and bone marrow) were recovered and analyzed for effects on organ weight, total cell numbers, immune cell populations (by differentials), and lymphocyte subpopulations (by flow cytometry). Assays were also performed to examine the effects of exposure on immune function. […] Similar effects on immune cell subpopulations were also observed in lymph nodes. In the thymus it appeared that the immature CD4^+ CD8^+ cells were differentially lost due to exposure. […] However, these effects are prevented or ameliorated by treatment of the animals with Substance P.
For each of the immune system organs (spleen, lymph nodes and thymus) the wet weight is determined after removal using a microbalance. After processing of the organs into single cell suspensions the cell numbers and viabilities are determined using trypan blue staining. Histochemical differentials are performed at this time. Cell numbers and viabilities are again determined after centrifugation of the cell suspensions through density gradients to obtain mononuclear cells.

[1] = tested on: lymphocyte subpopulations; assay: Flow cytometric analyses (FACS); format: in vivo, C57B16 mice
Protocol: as §1
One- and two-color FACS analyses are performed using a Becton-Dickinson FACStar Plus flow cytometer. Cells are stained with the indicated monoclonal antibodies according to standard procedures (Harris et al., id). Cells alone and cells reacted with conjugated isotype control, irrelevant mAbs are used as controls. Data is presented as the percentage of cells staining positive for each individual mAb.

[2] = JP-8 1000 mg/m^3 + SP, nSP (1 nM), CP or RP

For `COc1ccccc1CN[C@H]1C2CCN(CC2)[C@H]1C(c1ccccc1)c1ccccc1` [CP, reference compound], the “BM Cell Number” value (immune system organs; [2]) was 22, the “LN Cell Number” value (immune system organs; [2]) was 7.1 and the “Spleen Cell Number” value (immune system organs; [2]) was 7. The “Spleen Weight” value (immune system organs; [2]) was 0.16, the “Thymus Cell Number” value (immune system organs; [2]) was 75 and the “Thymus Weight” value (immune system organs; [2]) was 0.12. For the same compound, the “BM Cell Number” value (immune system organs; dose 0 (no JP-8) + SP or CP) was 29, the “LN Cell Number” value (immune system organs; dose 0 (no JP-8) + SP or CP) was 9.8 and the “Spleen Cell Number” value (immune system organs; dose 0 (no JP-8) + SP or CP) was 16. The “Spleen Weight” value (immune system organs; dose 0 (no JP-8) + SP or CP) was 0.12, the “Thymus Cell Number” value (immune system organs; dose 0 (no JP-8) + SP or CP) was 50 and the “Thymus Weight” value (immune system organs; dose 0 (no JP-8) + SP or CP) was 0.12. The “BM CD3 positive cells” value [1, 2] was 14%, the “BM CD4 positive cells” value [1, 2] was 7% and the “BM CD8 positive cells” value [1, 2] was 3%. The “BM CD45 positive cells” value [1, 2] was 41%, the “BM MAC1 positive cells” value [1, 2] was 26% and the “LN CD3 positive cells” value [1, 2] was 95%. For the same compound, the “LN CD4 positive cells” value [1, 2] was 35%, the “LN CD8 positive cells” value [1, 2] was 23% and the “PBL CD3 positive cells” value [1, 2] was 50%. For the same compound, the “PBL CD4 positive cells” value [1, 2] was 20%, the “PBL CD8 positive cells” value [1, 2] was 15% and the “PBL CD45 positive cells” value [1, 2] was 27%. For the same compound, the “PBL MAC1 positive cells” value [1, 2] was 6%, the “Spleen CD3 positive cells” value [1, 2] was 34% and the “Spleen CD4 positive cells” value [1, 2] was 16%. The “Spleen CD8 positive cells” value [1, 2] was 9%, the “Spleen CD45 positive cells” value [1, 2] was 26% and the “Spleen MAC1 positive cells” value [1, 2] was 10%. The “Thymus CD3 positive cells” value [1, 2] was 17%, the “Thymus DN cells” value [1, 2] was 12% and the “Thymus DP cells” value [1, 2] was 65%. For the same compound, the “Thymus SP4 cells” value [1, 2] was 17%, the “Thymus SP8 cells” value [1, 2] was 7% and the “BM CD3 positive cells” value ([1]; dose 0 (no JP-8) + SP or CP) was 16%. The “BM CD4 positive cells” value ([1]; dose 0 (no JP-8) + SP or CP) was 9%, the “BM CD8 positive cells” value ([1]; dose 0 (no JP-8) + SP or CP) was 7% and the “BM CD45 positive cells” value ([1]; dose 0 (no JP-8) + SP or CP) was 27%. For the same compound, the “BM MAC1 positive cells” value ([1]; dose 0 (no JP-8) + SP or CP) was 33%, the “LN CD3 positive cells” value ([1]; dose 0 (no JP-8) + SP or CP) was 49% and the “LN CD4 positive cells” value ([1]; dose 0 (no JP-8) + SP or CP) was 25%. For the same compound, the “LN CD8 positive cells” value ([1]; dose 0 (no JP-8) + SP or CP) was 12%, the “LN CD45 positive cells” value ([1]; dose 0 (no JP-8) + SP or CP) was 15% and the “LN MAC1 positive cells” value ([1]; dose 0 (no JP-8) + SP or CP) was 1%. For the same compound, the “PBL CD3 positive cells” value ([1]; dose 0 (no JP-8) + SP or CP) was 72%, the “PBL CD4 positive cells” value ([1]; dose 0 (no JP-8) + SP or CP) was 29% and the “PBL CD8 positive cells” value ([1]; dose 0 (no JP-8) + SP or CP) was 13%. For the same compound, the “PBL CD45 positive cells” value ([1]; dose 0 (no JP-8) + SP or CP) was 12%, the “PBL MAC1 positive cells” value ([1]; dose 0 (no JP-8) + SP or CP) was 7% and the “Spleen CD3 positive cells” value ([1]; dose 0 (no JP-8) + SP or CP) was 32%. The “Spleen CD4 positive cells” value ([1]; dose 0 (no JP-8) + SP or CP) was 21%, the “Spleen CD8 positive cells” value ([1]; dose 0 (no JP-8) + SP or CP) was 7% and the “Spleen CD45 positive cells” value ([1]; dose 0 (no JP-8) + SP or CP) was 24%. The “Spleen MAC1 positive cells” value ([1]; dose 0 (no JP-8) + SP or CP) was 3%, the “Thymus CD3 positive cells” value ([1]; dose 0 (no JP-8) + SP or CP) was 18% and the “Thymus DN cells” value ([1]; dose 0 (no JP-8) + SP or CP) was 13%. For the same compound, the “Thymus DP cells” value ([1]; dose 0 (no JP-8) + SP or CP) was 75%, the “Thymus SP4 cells” value ([1]; dose 0 (no JP-8) + SP or CP) was 12% and the “Thymus SP8 cells” value ([1]; dose 0 (no JP-8) + SP or CP) was 3%.

`COc1ccccc1CC(=N)N1C[C@@H]2C(=O)CCC(c3ccccc3)(c3ccccc3)[C@@H]2C1` [RP, reference compound] was tested, and the “BM Cell Number” value (immune system organs; [2]) was 27, the “LN Cell Number” value (immune system organs; [2]) was 6.8 and the “Spleen Cell Number” value (immune system organs; [2]) was 37. The “Spleen Weight” value (immune system organs; [2]) was 0.10, the “Thymus Cell Number” value (immune system organs; [2]) was 72 and the “Thymus Weight” value (immune system organs; [2]) was 0.03. The “BM CD3 positive cells” value [1, 2] was 12%, the “BM CD4 positive cells” value [1, 2] was 6% and the “BM CD8 positive cells” value [1, 2] was 5%. For the same compound, the “BM CD45 positive cells” value [1, 2] was 42%, the “BM MAC1 positive cells” value [1, 2] was 10% and the “LN CD3 positive cells” value [1, 2] was 96%. For the same compound, the “LN CD4 positive cells” value [1, 2] was 41%, the “LN CD8 positive cells” value [1, 2] was 29% and the “LN CD45 positive cells” value [1, 2] was 18%. The “LN MAC1 positive cells” value [1, 2] was 1%, the “PBL CD3 positive cells” value [1, 2] was 71% and the “PBL CD4 positive cells” value [1, 2] was 18%. For the same compound, the “PBL CD8 positive cells” value [1, 2] was 10%, the “PBL CD45 positive cells” value [1, 2] was 38% and the “PBL MAC1 positive cells” value [1, 2] was 9%. The “Spleen CD3 positive cells” value [1, 2] was 47%, the “Spleen CD4 positive cells” value [1, 2] was 16% and the “Spleen CD8 positive cells” value [1, 2] was 5%. For the same compound, the “Spleen CD45 positive cells” value [1, 2] was 39%, the “Spleen MAC1 positive cells” value [1, 2] was 1% and the “Thymus CD3 positive cells” value [1, 2] was 16%. For the same compound, the “Thymus DN cells” value [1, 2] was 10%, the “Thymus DP cells” value [1, 2] was 70% and the “Thymus SP4 cells” value [1, 2] was 12%. The “Thymus SP8 cells” value [1, 2] was 8%.

For nSP: 1 nanomolar substance P, the “BM Cell Number” value (immune system organs; [2]) was 31, the “LN Cell Number” value (immune system organs; [2]) was 10.8 and the “Spleen Cell Number” value (immune system organs; [2]) was 58. The “Spleen Weight” value (immune system organs; [2]) was 0.11, the “Thymus Cell Number” value (immune system organs; [2]) was 78 and the “Thymus Weight” value (immune system organs; [2]) was 0.04. For the same compound, the “BM CD3 positive cells” value [1, 2] was 13%, the “BM CD4 positive cells” value [1, 2] was 10% and the “BM CD8 positive cells” value [1, 2] was 3%. For the same compound, the “BM CD45 positive cells” value [1, 2] was 43%, the “BM MAC1 positive cells” value [1, 2] was 16% and the “LN CD3 positive cells” value [1, 2] was 95%. For the same compound, the “LN CD4 positive cells” value [1, 2] was 42%, the “LN CD8 positive cells” value [1, 2] was 25% and the “LN CD45 positive cells” value [1, 2] was 23%. For the same compound, the “LN MAC1 positive cells” value [1, 2] was 0%, the “PBL CD3 positive cells” value [1, 2] was 78% and the “PBL CD4 positive cells” value [1, 2] was 25%. The “PBL CD8 positive cells” value [1, 2] was 8%, the “PBL CD45 positive cells” value [1, 2] was 29% and the “PBL MAC1 positive cells” value [1, 2] was 2%. The “Spleen CD3 positive cells” value [1, 2] was 60%, the “Spleen CD4 positive cells” value [1, 2] was 15% and the “Spleen CD8 positive cells” value [1, 2] was 5%. For the same compound, the “Spleen CD45 positive cells” value [1, 2] was 41%, the “Spleen MAC1 positive cells” value [1, 2] was 1% and the “Thymus CD3 positive cells” value [1, 2] was 25%. For the same compound, the “Thymus DN cells” value [1, 2] was 7%, the “Thymus DP cells” value [1, 2] was 69% and the “Thymus SP4 cells” value [1, 2] was 16%. For the same compound, the “Thymus SP8 cells” value [1, 2] was 7%.
